Values joined by “and” are separate entries in the source; they are usually repeats but may differ in a detail not shown here. Equal entries are not always repeated.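 Following 48 hours of exposure in 96-well plates, responses at five concentrations were used to interpolate endpoints linearly. GI50 marks 50% less growth. TGI is the concentration that stops growth completely.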
Key:
Experiment in all cases: inhibition of tumour cell growth, NCI panel, 48 h
HCC-2998 colon = test system: HCC-2998 colon
RXF 393 renal = test system: RXF 393 renal
MDA-MB-435 = test system: MDA-MB-435
MDA-N = test system: MDA-N
SF-539 CNS = test system: SF-539 CNS
HOP-92 NSCLC = test system: HOP-92 NSCLC
ACHN renal = test system: ACHN renal
MOLT-4 leukemia = test system: MOLT-4 leukemia
UO-31 renal = test system: UO-31 renal
COLO 205 colon = test system: COLO 205 colon
SK-OV-3 ovarian = test system: SK-OV-3 ovarian
BT-549 breast = test system: BT-549 breast
SR leukemia = test system: SR leukemia
SW-620 colon = test system: SW-620 colon
HOP-62 NSCLC = test system: HOP-62 NSCLC
PC-3 prostate = test system: PC-3 prostate

Row | Structure (SMILES) | TGI (HCC-2998 colon) [µM] | TGI (RXF 393 renal) [µM] | TGI (MDA-MB-435) [µM] | TGI (MDA-N) [µM] | TGI (SF-539 CNS) [µM] | TGI (HOP-92 NSCLC) [µM] | TGI (ACHN renal) [µM] | TGI (MOLT-4 leukemia) [µM] | TGI (UO-31 renal) [µM] | TGI (COLO 205 colon) | TGI (SK-OV-3 ovarian) [µM] | TGI (BT-549 breast) [µM] | TGI (SR leukemia) [µM] | TGI (SW-620 colon) [µM] | TGI (HOP-62 NSCLC) [µM] | TGI (PC-3 prostate) [µM] | GI50 (RXF 393 renal) | GI50 (MOLT-4 leukemia) [µM] | GI50 (SK-OV-3 ovarian) [µM] | GI50 (SF-539 CNS)
1 | S=C=NC1CCC(c2cc3ccccc3s2)(N2CCCCC2)CC1 (stereo not drawn) | 3.22 | 3.16 | 3.19 | 3.73 | 3.77 | 3.56 | 3.34 | 1.01 | 3.66 | 3.93 µM | 4.59 | 6.55 | 2.12 | – | – | – | – | – | – | –
2 | COc1ccc(-c2cc(=O)c3c(O)cc(O)cc3o2)c(OC)c1OC | > 100 | > 100 | – | – | > 100 | > 100 | – | – | – | > 100 µM | > 100 | – | – | > 100 | > 100 | – | – | – | – | –
3 | COC(=O)C1C=CCON2CCc3c(n(S(=O)(=O)c4ccccc4)c4ccccc34)C12 (stereo not drawn) | > 100 | > 100 | – | – | > 16.2 | > 100 | > 100 | > 71 | > 100 | > 68.9 µM | > 85.7 | – | > 100 | > 34.3 | > 55.5 | – | – | – | – | –
4 | Cc1csc(NNC(=O)Nc2ccccc2)n1 | > 100 | > 100 | > 100 | > 100 | > 100 | – | > 100 | – | > 100 | > 100 µM | > 100 | – | > 100 | > 100 | > 100 | > 100 | – | – | – | –
5 | C=CC1(C)OC2(CCN(C(=O)OCC)CC2)OC1C (stereo not drawn) | > 100 | > 100 | > 100 | > 100 | > 100 | > 100 | > 100 | > 100 | > 100 | > 100 µM | > 100 | – | > 100 | > 100 | > 100 | > 100 | – | – | – | –
6 | O=c1c([OH2+])c(-c2ccc(O)cc2[O-])oc2cc(O)cc([O-])c12.O=c1c([OH2+])c(-c2ccc(O)cc2[O-])oc2cc(O)cc([O-])c12.[Ti+4] | – | > 100 | – | – | > 100 | – | > 100 | > 100 | > 100 | > 100 µM | > 100 | – | – | > 100 | > 100 | – | > 100 µM | > 100 | > 100 | –
7 | CC(O)[C@@]1(c2ccccc2)CC2(CCN(C)CC2)O[C@H]1C (stereo partly drawn) | > 100 | > 100 | > 100 | – | > 100 | > 100 | > 100 | > 100 | > 100 | > 100 µM | > 100 | – | > 100 | > 100 | > 100 | > 100 | – | – | – | –
8 | c1ccc([P+](CCCCCC[P+](c2ccccc2)(c2ccccc2)c2ccccc2)(c2ccccc2)c2ccccc2)cc1 | > 100 | > 100 | 72.9 | 54.9 | 39 | 66.7 | > 100 | > 100 | > 100 | 13.8 µM | > 100 | – | > 100 | > 100 | > 100 | > 100 | – | – | – | –
9 | CC1=C2C3OC(=O)C(C)C3CCC2(C)C=CC1=Nc1ccccc1 (stereo not drawn) | > 100 | > 100 | – | – | > 100 | > 100 | – | > 100 | > 100 | > 100 µM | > 100 | – | – | > 100 | > 100 | – | – | – | – | –
10 | O=c1c2c(F)c(F)c(F)c(F)c2sc2nccn12 | 31.9 | 32 | 28.6 | 29.4 | 31.4 | 39.4 | 30 | 9.62 | – | 32.7 µM | 36 | – | 18.7 | 33 | 42.3 | 35.9 | – | – | – | –
11 | CCCCc1ccc(C#CC#Cc2ccc(CCCC)s2)s1 | > 100 | > 100 | > 100 | > 100 | > 100 | > 100 | > 100 | > 100 | > 100 | > 100 µM | > 100 | – | > 100 | > 100 | > 100 | – | – | – | – | –
12 | CN(C(=O)c1ccco1)C(=S)N1CCN(c2ccccn2)CC1 | – | > 100 | – | – | > 100 | > 100 | > 100 | > 100 | > 100 | > 100 µM | > 100 | – | – | > 100 | > 100 | – | – | – | – | –
13 | O=C1C=CC2(C=C1)C[C@H](NC(=O)OCc1ccccc1)C(=O)O2 | 40.8 | 24.9 | – | 28.9 | 44.5 | 29.9 | 29.5 | 15.3 | 39.9 | 18.3 µM | > 92.3 | 32.7 | 4.33 | 18.2 | > 69.2 | 29.9 | – | – | – | –
14 | O=C1CCCc2ccc3c(c21)CC1(Cc2ccccc2C1)C3 | > 100 | > 100 | > 100 | 67.2 | > 100 | 50.6 | 68.9 | – | > 100 | 52.3 µM | > 100 | – | – | – | > 100 | > 100 | – | – | – | –
15 | COc1cc2c[n+](C)c3c4cc(OC)c(OC)cc4ccc3c2cc1OC | > 100 | > 100 | > 100 | – | > 100 | – | > 100 | > 100 | > 100 | 42.8 µM and 39.9 µM | > 100 | > 100 | – | > 100 | > 100 | > 100 | > 100 µM and 28.5 µM | – | – | 71.3 µM and 29.9 µM
16 | C=C1Cc2cc(OC)c(OC)c(OC)c2-c2ccc(SC)c(=O)cc21 | 0.402 | 10.4 | – | – | < 0.01 | 3.7 | 6.2 | 25.2 | 6.96 | < 0.0318 µM | 5.15 | – | > 100 | 4 | 7.8 | – | – | – | – | –
17 | CCCNC(=O)N(C)C(=O)N1N=C(c2ccccc2)C1c1ccccc1 (stereo not drawn) | > 100 | > 100 | > 100 | > 100 | > 100 | > 100 | > 100 | > 100 | > 100 | > 100 µM | > 100 | – | – | > 100 | > 100 | > 100 | – | – | – | –
